Patent publication US20150353626A1, “APOLIPOPROTEIN A-I DERIVED PEPTIDES FOR TREATMENT OF HYPERGLYCAEMIA” (priority 2013, published 2015)
Ends that are not written are not given here.

Legend:
AMPK = test: Western blot for phosphorylated AMPK in L6 myotube lysates; type: cell-based; settings: L6 myotubes, 60 minutes; rHDL 700 μg/ml apoA-I; phenformin 0.4 mmol/l; FIG. 3a,b
Protocol: (§1) Prior to stimulation or treatment cultured myoblast cells were serum starved for 4 hours in serum-free α-MEM and all subsequent treatments, including insulin or phenformin as positive controls (Sigma), were performed in serum free a-MEM. After treatments, cells were washed with ice cold PBS buffer and lysed on ice using a non-denaturing lysis buffer (1% Triton X-100, 50 mmol/l Tris, 150 mmol/l NaCl, pH 8.0) containing protease and phosphatase inhibitors (Roche). Lysates were centrifuged at 16,000×g, 20 minutes at 4° C. and BCA protein assay (Pierce) was performed on supernatants. Equal protein amounts were separated by SDS-PAGE and transferred to nitrocellulose membranes. pAMPK, AMPK, pACC, pAkt, Akt and tubulin were used for immunodetection with IRDye 800CW and 680RD secondary antibodies (LI-COR). Blots were imaged using the Odyssey Fc system and quantified using Image studio v2.0 software.
To dissect the effect of discoidal rHDL on a non-insulin dependent signaling pathway, we conducted western blotting using lysates from L6 myotubes incubated with rHDL. […] Phenformin was used as a positive control, inducing a 1.98±0.33-fold (p=≦0.05) and 2.7±0.74-fold (p=≦0.05) elevation of phosphorylated AMPK and ACC, respectively, at a concentration of 0.4 mmol/l. […] Representative immunoblots of those quantified for FIGS. 3a, c and f are given in FIGS. 3b, d and e, respectively. […]

ACC = test: Western blot for phosphorylated ACC in L6 myotube lysates; type: cell-based; settings: L6 myotubes, 60 minutes; rHDL 700 μg/ml apoA-I; phenformin 0.4 mmol/l; FIG. 3c,d
Protocol: as §1
To dissect the effect of discoidal rHDL on a non-insulin dependent signaling pathway, we conducted western blotting using lysates from L6 myotubes incubated with rHDL. […] Phenformin was used as a positive control, inducing a 1.98±0.33-fold (p=≦0.05) and 2.7±0.74-fold (p=≦0.05) elevation of phosphorylated AMPK and ACC, respectively, at a concentration of 0.4 mmol/l. […] Representative immunoblots of those quantified for FIGS. 3a, c and f are given in FIGS. 3b, d and e, respectively.

[1] = test system: insulin resistant C57Bl/6 mice; test: Glucose tolerance test in high-fat diet fed (HFD) mice; type: in vivo, mouse; settings: glucose load 3 hours later
Protocol: Male C57BL/6 mice (Taconic) were used at 9-12 weeks of age. Animals were on a 12 hour light cycle with non-restricted food and water. The HFD animals were fed an HFD (D12492, 60% fat content; Research Diets) for 2 weeks. All animal procedures were approved by the Malmo/Lund Committee for Animal Experiment Ethics, Lund, Sweden. HFD mice fasted overnight (12 hours) were injected intra peritoneal (i.p.) with apoA-I peptides as listed above ([…] in PBS pH 7.4 for the 54-mer fragment and 6-7 mg/kg for other fragments in PBS, pH 7.4; control animals received NaCl) and this was followed by collection of serum samples at the indicated times. Glucose (50 mg/mouse) was injected i.p. 3 hours after treatments, followed by collection of serum samples at the indicated times. Blood glucose levels were measured (OnetouchUltra2; Lifescan), and insulin levels were assayed in serum using ELISA (Mercodia).

L6 myotubes = test: Glucose uptake in L6 myotubes (2-[3H]-deoxy-D-glucose); type: cell-based; settings: 2 h serum starved, 50 μg/ml (1.6 μmol/l) apoA-I or 100 nmol/l insulin, 1 hour, FIG. 1b
Protocol: L6 myoblasts (ATCC #CRL-1458) were grown in α-MEM (Invitrogen) supplemented with 10% FBS (Sigma) and 1% antibiotic/antimycotic (Penicillin, streptomycin, amphotericin B; Invitrogen). Differentiation to myotubes was achieved by switching from growth media to 2% FBS a-MEM for 6-7 or 6-12 days. Cells were maintained at 37° C. and 5% CO2.
Prior to stimulation (or treatment) cells were starved for 2 hours in serum-free a-MEM and all subsequent treatments, which were performed in triplicate and included cytochalasin B (Sigma) as a measure of cell associated non-specific radioactivity, were performed in uptake buffer (140 mmol/l NaCl, 20 mmol/l HEPES, 5 mmol/l KCl, 2.5 mmol/l MgSO4, 1 mmol/l CaCl2, pH 7.4). After stimulation, treatments were replaced with 10 μmol/l 2-deoxy-D-glucose (Sigma), 10 μmol/l 2-[3H]-deoxy-D-glucose (Perkin Elmer) in uptake buffer for 15 mins at room temperature. Cells were then washed twice with ice cold PBS and lysed with 1 mol/l NaOH on ice. Lysates were collected and radioactivity quantified by scintillation counting.
In order to investigate the effect of discodial HDL (rHDL) on GLUT4 translocation and glucose uptake, we produced recombinant human apoA-I and reconstituted HDL needed for cell incubations. L6 myotubes were incubated with 50 μg/ml (1.6 μmol/l) apoA-I for 1 hour followed by a glucose uptake assay as described above. […] Next, L6 myotubes were treated by incubation with 50 μg/ml discodial rHDL (expressed as total concentration of apoA-I in rHDL, given 2 apoA-I molecules per particle) for 1 hour. […] This experiment was thereafter repeated in more controlled manner including cell number and quality (cells were similarly treated during differentiation from myoblasts to multinuclear myotubes, with respect to the time between splitting cells, cell density, passage of cells used.) (FIG. 7c).
The relative effect of specific regions of apoA-I to increase glucose uptake was investigated using truncated protein fragments corresponding to residues 1-189 (N-terminal/central domain), 44-189 (central domain), 44-243 (central/C-terminal domain) and 190-243 (C-terminal domain) of full-length apoA-I (FIG. 4a). The treatments with incubation of truncated protein fragments were performed as described above for treatment of L6 myotubes with full-length apoA-I and followed by a glucose uptake assay as described above.
To test for the contribution of the constituent phospholipid to rHDL-induced glucose uptake in L6 myotubes, rHDL made with DMPC was also produced and compared to 100 nm DMPC vesicles containing no apoA-I protein. Stable 100 nm diameter vesicles can be synthesized with DMPC in the absence of apoA-I and was therefore used as a phospholipid control. The effect on the glucose uptake was tested as described above. […] To also test for the contribution of the constituent POPC phospholipid to rHDL-induced glucose uptake, rHDL made with POPC was compared with 100 nm POPC vesicles containing no apoA-I protein.

[2] = Circular dichroism spectroscopy, alpha-helical content; type: physicochemical; settings: 0.2 mg/ml in PBS pH 7.4, 25° C.
Protocol: CD measurements were performed on a Jasco J-810 spectropolarimeter equipped with a Jasco CDF-4265 Peltier set to 25° C. ApoA-I (full-length and the 190-234 polypeptide fragment) was diluted to 0.2 mg/ml in PBS (final concentration was 25 mmol/l phosphate, 25 mmol/l NaCl, pH 7.4), placed in a 0.1 mm quartz cuvette and, after extensive purging with nitrogen, scanned in the region 200 to 260 nm (scan speed was 20 nm/min). Averages of five scans were baseline-subtracted (PBS; 25 mmol/l phosphate, 25 mmol/l NaCl) and the alpha-helical content was calculated from the molar ellipticity at 222 nm as previously described (Petrlova et al. (2012) J Lipid Res 53: 390-398).

[3] = apo-state versus discoidal HDL; Saito et al. (2004); cited from earlier work
[4] = biological target: the molecule itself; test: blue native PAGE, coomassie stained; self-association (homo-oligomer) in solution and after 1 hour with L6 myotubes
Excerpt: It is known that the 190-234 polypeptide fragment can form discoidal particles by solubilisation of lipid in solution (Vedhachalan et al. (2010) J Biol Chem 285:31965-31973), which can be visualised as oligomers on native PAGE. […] Lipid-free apoA-I and rHDL were included on the gel as a full length protein monomer and dimer reference.

[5] = 18-mer peptides, single injection 7 mg/kg, FIG. 12
[6] = 23- or 27-mer peptides, single injection 6-7 mg/kg, FIG. 11

In the case of [H]/N=C(/N)N/C(=N/[H])NCCc1ccccc1 [Phenformin, phenformin, reference compound], the “levels of phosphorylated AMPK” value (AMPK) is reported as 1.98±0.33 fold and the “levels of phosphorylated ACC” value (ACC) is reported as 2.7±0.74 fold.

In the case of “SEQ ID NO: 2: fragment consisting of amino acids 190-207 of human ApoA-I (AEYHAKATEHLSTLSEKA; listed as Homo Sapiens)”, the “glucose tolerance capacity / capacity to clear blood glucose (in words)” value (“glucose tolerance capacity / capacity” for short) [1, 5] is reported as “showed particular increased capacity to clear blood glucose”.

In the case of “SEQ ID NO: 4: fragment consisting of amino acids 226-243 of human ApoA-I (KVSFLSALEEYTKKLNTQ; listed as Homo Sapiens)”, the “glucose tolerance capacity / capacity” value [1, 5] is reported as “showed particular increased capacity to clear blood glucose”.

In the case of “SEQ ID NO: 8: fragment consisting of amino acids 217-243 of human ApoA-I (GLLPVLESFKVSFLSALEEYTKKLNTQ; listed as Homo Sapiens)”, the “glucose tolerance capacity / capacity” value [1, 6] is reported as “showed particular increased capacity to clear blood glucose”.

With “SEQ ID NO: 518: fragment consisting of amino acids 204-226 of human ApoA-I (SEKAKPALEDLRQGLLPVLESFK; listed as Homo Sapiens)” the “glucose tolerance capacity / capacity” value [1, 6] was “showed particular increased capacity to clear blood glucose”.

For “apoA-I: recombinant full-length human apolipoprotein A-I, amino acids 1-243, lipid-free”, the increased glucose uptake (L6 myotubes) is listed as 1.3 fold, the “helical content from molar ellipticity at 222 nm” value [2] is listed as 43% and the alpha-helical secondary structure [3] is listed as “about 44%”.

B1: 190-243 polypeptide fragment of human apoA-I (SEQ ID NO: 1) (peptide, not shown: small tags and cut ends)
chain: AEYHAKATEHLSTLSEKAKPALEDLRQGLLPVLESFKVSFLSALEEYTKKLNTQ
modifications: also: N-terminal hexa-His tag (letters not given here)
notes: Recombinant, expressed in E. coli
B1: binds [4].
